Experimental data published in PubChem BioAssay AID248 (DTP/NCI, 2004).
Inconclusive results and toxic doses are left out. No stated cut-off is given here; in the data, active means T/C of 150% or more; inactive means T/C below 125%.

Tested on: L1210 leukemia ip in BDF1 mice, survival T/C
Assay: NCI In Vivo Anticancer Drug Screen. Data for tumor model L1210 Leukemia (intraperitoneal) in B6D2F1 (BDF1) mice
Conditions: endpoint: mean survival time, higher = longer survival
In short: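 Mice bearing the transplanted tumor received compound or vehicle. Survival of the treated group was divided by that of the vehicle-treated control group to give the ratio.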

[1] = dose: 100.0 mg/kg/injection, schedule: Q01DX001 (ip), vehicle: saline
[2] = dose: 200.0 mg/kg/injection, schedule: Q01DX001 (ip), vehicle: saline
[3] = dose: 400.0 mg/kg/injection, schedule: Q01DX001 (ip), vehicle: saline
[4] = dose: 100.0 mg/kg/injection, schedule: Q04DX003 (ip), vehicle: Klucel (hydroxypropylcellulose) (HPC)
[5] = dose: 200.0 mg/kg/injection, schedule: Q04DX003 (ip), vehicle: Klucel (hydroxypropylcellulose) (HPC)
[6] = dose: 400.0 mg/kg/injection, schedule: Q04DX003 (ip), vehicle: Klucel (hydroxypropylcellulose) (HPC)
[7] = dose: 100.0 mg/kg/injection, schedule: Q04DX003 (ip), vehicle: saline
[8] = dose: 200.0 mg/kg/injection, schedule: Q04DX003 (ip), vehicle: saline
[9] = dose: 400.0 mg/kg/injection, schedule: Q04DX003 (ip), vehicle: saline
[10] = dose: 100.0 mg/kg/injection, schedule: Q01DX009 (ip), vehicle: saline with Tween-80
[11] = dose: 200.0 mg/kg/injection, schedule: Q01DX009 (ip), vehicle: saline with Tween-80
[12] = dose: 100.0 mg/kg/injection, schedule: Q04DX002 (ip), vehicle: Klucel (hydroxypropylcellulose) (HPC)
[13] = dose: 200.0 mg/kg/injection, schedule: Q04DX002 (ip), vehicle: Klucel (hydroxypropylcellulose) (HPC)
[14] = dose: 400.0 mg/kg/injection, schedule: Q04DX002 (ip), vehicle: Klucel (hydroxypropylcellulose) (HPC)
[15] = dose: 100.0 mg/kg/injection, schedule: Q01DX009 (ip), vehicle: Klucel (hydroxypropylcellulose) (HPC)
[16] = dose: 200.0 mg/kg/injection, schedule: Q01DX009 (ip), vehicle: Klucel (hydroxypropylcellulose) (HPC)
[17] = dose: 400.0 mg/kg/injection, schedule: Q01DX009 (ip), vehicle: Klucel (hydroxypropylcellulose) (HPC)

Measured: T/C

O=C(Nc1ccc(C2=NCCN2)cc1)C(=O)Nc1ccc(C2=NCCN2)cc1
inactive: dose: 15.0 mg/kg/injection, schedule: Q01DX Z (ip), vehicle: saline 101 % of control | dose: 30.0 mg/kg/injection, schedule: Q01DX Z (ip), vehicle: saline 118 % of control | dose: 60.0 mg/kg/injection, schedule: Q01DX Z (ip), vehicle: saline 124 % of control

CCOC(=S)SCCSC(=S)OCC
inactive: [1] 105 % of control | [2] 100 % of control | [3] 97 % of control

Cc1ccc(N2SC(Cl)(Cl)N(c3ccc(C)cc3)SC2(Cl)Cl)cc1
inactive: [4] 94 % of control | [5] 90 % of control | [6] 100 % of control

CSc1ncnc2c1ncn2C1OC(CO)C(O)OC1O (stereo not drawn)
inactive: dose: 15.0 mg/kg/injection, schedule: Q01DX009 (ip), vehicle: saline 117 % of control | dose: 25.0 mg/kg/injection, schedule: Q01DX009 (ip), vehicle: saline 111 % of control | dose: 25.0 mg/kg/injection, schedule: Q04DX003 (ip), vehicle: Klucel (hydroxypropylcellulose) (HPC) 104 % of control | dose: 45.0 mg/kg/injection, schedule: Q01DX001 (ip), vehicle: saline 106 % of control | dose: 45.0 mg/kg/injection, schedule: Q01DX009 (ip), vehicle: saline 119 % of control | dose: 50.0 mg/kg/injection, schedule: Q04DX003 (ip), vehicle: Klucel (hydroxypropylcellulose) (HPC) 109 % of control | dose: 67.0 mg/kg/injection, schedule: Q01DX001 (ip), vehicle: saline 118 % of control | dose: 70.0 mg/kg/injection, schedule: Q01DX009 (ip), vehicle: saline 119 % of control | dose: 75.0 mg/kg/injection, schedule: Q01DX009 (ip), vehicle: saline 116 % of control | [4] 110 % of control | [2] 112 % of control

COC(=O)C(C)O (stereo not drawn)
inactive: [7] 97 % of control | [8] 105 % of control | [9] 107 % of control

O=C(CCC1c2ccccc2C(=O)c2ccccc21)c1ccccc1
inactive: dose: 50.0 mg/kg/injection, schedule: Q01DX009 (ip), vehicle: saline with Tween-80 108 % of control | [10] 97 % of control | [11] 101 % of control

CCOC(=O)c1ccc2ccccc2c1
inactive: [10] 94 % of control | [11] 97 % of control | dose: 400.0 mg/kg/injection, schedule: Q01DX009 (ip), vehicle: saline with Tween-80 89 % of control

CC(=O)Nc1cc([N+](=O)[O-])cc(C)c1O
inactive: [10] 97 % of control | [11] 89 % of control

COC(=O)C1=C2C(C(=O)OC)C(O)=C(C(=O)OC)C2C(C(=O)OC)C1=O (stereo not drawn)
inactive: [1] 97 % of control | dose: 100.0 mg/kg/injection, schedule: Q01DX009 (ip), vehicle: saline 100 % of control | [7] 107 % of control | [2] 105 % of control | dose: 200.0 mg/kg/injection, schedule: Q01DX009 (ip), vehicle: saline 97 % of control | [8] 104 % of control | [3] 103 % of control | dose: 400.0 mg/kg/injection, schedule: Q01DX009 (ip), vehicle: saline 95 % of control | [9] 104 % of control

O=C(Cc1ccccc1)c1ccc(O)cc1
inactive: [4] 102 % of control | [5] 102 % of control | [6] 88 % of control

C(=N\N=C\c1cccs1)/c1cccs1
inactive: dose: 100.0 mg/kg/injection, schedule: Q04DX003 (ip), vehicle: saline with Tween-80 98 % of control | dose: 200.0 mg/kg/injection, schedule: Q04DX003 (ip), vehicle: saline with Tween-80 98 % of control | dose: 400.0 mg/kg/injection, schedule: Q04DX003 (ip), vehicle: saline with Tween-80 95 % of control

C(=N/N=C(N/N=C/c1ccccc1)N/N=C/c1ccccc1)/c1ccccc1
inactive: dose: 15.0 mg/kg/injection, schedule: Q01DX Z (ip), vehicle: carboxymethylcellulose (CMC) 95 % of control | dose: 30.0 mg/kg/injection, schedule: Q01DX Z (ip), vehicle: carboxymethylcellulose (CMC) 95 % of control | dose: 60.0 mg/kg/injection, schedule: Q01DX Z (ip), vehicle: carboxymethylcellulose (CMC) 92 % of control | dose: 120.0 mg/kg/injection, schedule: Q01DX Z (ip), vehicle: carboxymethylcellulose (CMC) 92 % of control | dose: 188.0 mg/kg/injection, schedule: Q01DX Z (oral), vehicle: carboxymethylcellulose (CMC) 95 % of control | dose: 375.0 mg/kg/injection, schedule: Q01DX Z (oral), vehicle: carboxymethylcellulose (CMC) 105 % of control | dose: 750.0 mg/kg/injection, schedule: Q01DX Z (oral), vehicle: carboxymethylcellulose (CMC) 110 % of control | dose: 1500.0 mg/kg/injection, schedule: Q01DX Z (oral), vehicle: carboxymethylcellulose (CMC) 100 % of control

O=C(O)C1C=CC(C(=O)O)c2ccccc21 (stereo not drawn)
inactive: [4] 102 % of control | [5] 96 % of control | [6] 98 % of control

CCS(=O)(=O)CCN1C(=O)C2C3CCC(O3)C2C1=O (stereo not drawn)
inactive: [12] 98 % of control | [13] 95 % of control | [14] 117 % of control

CCOc1ccccc1NC(=S)NC(=O)c1cccc([N+](=O)[O-])c1
inactive: [15] 100 % of control | [4] 98 % of control | [16] 96 % of control | [5] 98 % of control | [17] 96 % of control | [6] 100 % of control

c1coc(CCc2nc3ccccc3[nH]2)c1
inactive: dose: 50.0 mg/kg/injection, schedule: Q01DX009 (ip), vehicle: Klucel (hydroxypropylcellulose) (HPC) 121 % of control | [15] 116 % of control | [4] 96 % of control | [16] 100 % of control | [5] 100 % of control

O=C1Nc2ccccc2C12Nc1cccnc1N2 (stereo not drawn)
inactive: dose: 100.0 mg/kg/injection, schedule: Q01DX001 (ip), vehicle: saline with Tween-80 97 % of control | dose: 200.0 mg/kg/injection, schedule: Q01DX001 (ip), vehicle: saline with Tween-80 87 % of control

Cc1ccc(I)cc1NCN1C(=O)c2ccccc2C1=O
inactive: dose: 100.0 mg/kg/injection, schedule: Q04DX002 (ip), vehicle: saline with Tween-80 100 % of control | dose: 200.0 mg/kg/injection, schedule: Q04DX002 (ip), vehicle: saline with Tween-80 107 % of control | dose: 400.0 mg/kg/injection, schedule: Q04DX002 (ip), vehicle: saline with Tween-80 104 % of control

CN(C)c1ccc(/C=C/C(=O)/C=C/c2ccc(N(C)C)cc2)cc1
inactive: [15] 96 % of control | [16] 95 % of control | [17] 101 % of control

CCOC(=O)C[P+](c1cccc(OC)c1)(c1cccc(OC)c1)c1cccc(OC)c1
inactive: dose: 15.0 mg/kg/injection, schedule: Q01DX001 (ip), vehicle: carboxymethylcellulose (CMC) 90 % of control | dose: 30.0 mg/kg/injection, schedule: Q01DX001 (ip), vehicle: carboxymethylcellulose (CMC) 91 % of control

O=C(O)C1Cc2ccccc2-c2ccccc21 (stereo not drawn)
inactive: dose: 75.0 mg/kg/injection, schedule: Q01DX001 (ip), vehicle: saline 102 % of control | dose: 150.0 mg/kg/injection, schedule: Q01DX001 (ip), vehicle: saline 88 % of control | dose: 300.0 mg/kg/injection, schedule: Q01DX001 (ip), vehicle: saline 100 % of control

FC(F)(Cl)c1nc2nc(Cl)c(Cl)nc2[nH]1
inactive: dose: 50.0 mg/kg/injection, schedule: Q01DX009 (ip), vehicle: other 96 % of control | dose: 100.0 mg/kg/injection, schedule: Q01DX009 (ip), vehicle: other 122 % of control | dose: 100.0 mg/kg/injection, schedule: Q04DX003 (ip), vehicle: other 114 % of control | dose: 200.0 mg/kg/injection, schedule: Q04DX003 (ip), vehicle: other 123 % of control | dose: 400.0 mg/kg/injection, schedule: Q04DX003 (ip), vehicle: other 96 % of control

ClC(Cl)(Cl)C1OCOC(C(Cl)(Cl)Cl)OCO1 (stereo not drawn)
inactive: [15] 94 % of control | [4] 98 % of control | [16] 93 % of control | [5] 98 % of control | [17] 94 % of control | [6] 102 % of control

CC(C)N=Cc1ccccc1O.CC(C)N=Cc1ccccc1O.[Co]
inactive: dose: 100.0 mg/kg/injection, schedule: Q01DX009 (ip), vehicle: saline sonified 108 % of control | [4] 103 % of control | dose: 200.0 mg/kg/injection, schedule: Q01DX009 (ip), vehicle: saline sonified 100 % of control | [5] 99 % of control | [6] 100 % of control

Nc1nc(N)nc(C(c2ccccc2)c2ccccc2)n1
inactive: [12] 103 % of control | [13] 94 % of control | [14] 87 % of control
